IC50 data for 26 molecules are collected here from the Kinase Knowledgebase extract (Sharma et al. 2016).

Each structure is given as a SMILES string.

The target in the experiment is PIK3CG (human) (UniProt P48736). As to the kind of experiment: Assessment of PIK3CG Kinase Activity.
Chain of PIK3CG (human) (P48736 whole entry, looked up): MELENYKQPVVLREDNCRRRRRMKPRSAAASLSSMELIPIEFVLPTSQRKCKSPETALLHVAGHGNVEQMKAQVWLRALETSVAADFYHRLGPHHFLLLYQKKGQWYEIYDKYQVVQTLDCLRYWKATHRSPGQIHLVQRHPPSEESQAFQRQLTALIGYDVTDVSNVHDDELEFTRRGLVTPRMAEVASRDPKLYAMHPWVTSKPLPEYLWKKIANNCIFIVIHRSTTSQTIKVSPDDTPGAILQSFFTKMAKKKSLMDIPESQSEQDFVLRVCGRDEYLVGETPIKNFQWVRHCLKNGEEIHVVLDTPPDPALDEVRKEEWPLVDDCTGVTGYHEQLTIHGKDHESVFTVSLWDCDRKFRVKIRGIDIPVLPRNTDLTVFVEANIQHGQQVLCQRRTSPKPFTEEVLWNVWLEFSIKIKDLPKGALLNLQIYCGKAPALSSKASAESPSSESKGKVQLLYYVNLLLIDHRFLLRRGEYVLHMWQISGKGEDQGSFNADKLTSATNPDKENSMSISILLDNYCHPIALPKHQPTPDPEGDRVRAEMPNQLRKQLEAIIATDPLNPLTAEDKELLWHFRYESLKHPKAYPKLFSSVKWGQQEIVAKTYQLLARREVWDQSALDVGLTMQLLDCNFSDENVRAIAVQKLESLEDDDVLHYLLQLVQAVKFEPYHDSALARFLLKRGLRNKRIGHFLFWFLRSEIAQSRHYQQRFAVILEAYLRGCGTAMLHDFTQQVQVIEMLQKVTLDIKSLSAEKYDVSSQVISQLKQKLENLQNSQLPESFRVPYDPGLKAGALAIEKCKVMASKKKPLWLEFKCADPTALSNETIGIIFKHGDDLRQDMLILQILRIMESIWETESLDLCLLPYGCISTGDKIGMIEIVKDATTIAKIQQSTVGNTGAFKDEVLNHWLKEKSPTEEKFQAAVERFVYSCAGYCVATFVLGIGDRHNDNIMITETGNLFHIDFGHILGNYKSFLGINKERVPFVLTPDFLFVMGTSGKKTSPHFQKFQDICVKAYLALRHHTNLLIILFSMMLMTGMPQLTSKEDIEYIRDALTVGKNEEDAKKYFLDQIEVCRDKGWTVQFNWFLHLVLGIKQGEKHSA
On to `CC(=O)Nc1nc2c(s1)-c1nc(-c3cc(C#CCNC(=O)C(C)C)ccc3Cl)ncc1CC2`, for which the IC50 – broadly, the midpoint of a concentration-inhibition curve – is below 0.6 µM.

As to `CC(=O)Nc1nc2c(s1)-c1nc(-c3cc(C#CC4(N(C)C)CCCCC4)ccc3Cl)ncc1CC2`, the IC50 was below 0.6 µM.

In turn, `CCN(CC)S(=O)(=O)NCC#Cc1ccc(Cl)c(-c2ncc3c(n2)-c2sc(NC(C)=O)nc2CC3)c1` came in with an IC50 below 0.6 µM.

On to `C=CC#Cc1ccc(Cl)c(-c2ncc3c(n2)-c2sc(NC(C)=O)nc2CC3)c1`, for which the IC50 is below 0.6 µM.

`CC(=O)Nc1nc2c(s1)-c1nc(-c3cc(C#CC4CCN(C(=O)CC5CCCC5)CC4)ccc3Cl)ncc1CC2` displayed an IC50 below 0.6 µM.

The molecule `CC(=O)Nc1nc2c(s1)-c1nc(-c3cc(C#CCCN4CCOCC4)ccc3Cl)ncc1CC2` came in with an IC50 below 0.6 µM.

`CC(=O)Nc1nc2c(s1)-c1nc(-c3cc(C#CCNCCN4CCCC4)ccc3Cl)ncc1CC2` registered an IC50 below 0.6 µM.

As for `CCNC(=O)NCC#Cc1ccc(Cl)c(-c2ncc3c(n2)-c2sc(NC(C)=O)nc2CC3)c1`, the IC50 is below 0.6 µM.

As to `CC(=O)Nc1nc2c(s1)-c1nc(-c3cc(C#CC4CCN(CC5CCCC5)CC4)ccc3Cl)ncc1CC2`, the IC50 is below 0.6 µM.

As to `CC(=O)Nc1nc2c(s1)-c1nc(-c3cc(C#CC4CCN(S(C)(=O)=O)CC4)ccc3Cl)ncc1CC2`, the IC50 is below 0.6 µM.

In the case of `CC(=O)Nc1nc2c(s1)-c1nc(-c3cc(C#CCNC(=O)CC(C)(C)C)ccc3Cl)ncc1CC2`, the IC50 was below 0.6 µM.

Consider `CC(=O)Nc1nc2c(s1)-c1nc(-c3cc(C#CC4(O)CCN(C)CC4)ccc3Cl)ncc1CC2`, for which the IC50 is below 0.6 µM.

On to `CC(=O)Nc1nc2c(s1)-c1nc(-c3cc(C#CCN(C)C(=O)C(C)C)ccc3Cl)ncc1CC2`, for which the IC50 is below 0.6 µM.

The molecule `COC1(C#Cc2ccc(F)c(-c3ncc4c(n3)-c3sc(NC(C)=O)nc3CC4)c2)CCN(C)CC1` had an IC50 below 0.6 µM.

`CC(=O)Nc1nc2c(s1)-c1nc(-c3cc(C#CCNC(=O)CC4CCCCC4)ccc3Cl)ncc1CC2` gave an IC50 below 0.6 µM.

`CC(=O)Nc1nc2c(s1)-c1nc(-c3cc(C#CC4CCNCC4)ccc3Cl)ncc1CC2` showed an IC50 below 0.6 µM.

Turning to `CC(=O)Nc1nc2c(s1)-c1nc(-c3cc(C#CCN4CCC(N(C)C)CC4)ccc3Cl)ncc1CC2`, the IC50 is below 0.6 µM.

Molecule `CC(=O)Nc1nc2c(s1)-c1nc(-c3cc(C#CC4CCN(C(=O)NC5CCCC5)CC4)ccc3Cl)ncc1CC2` registered an IC50 below 0.6 µM.

Molecule `CC(=O)NCC#Cc1ccc(Cl)c(-c2ncc3c(n2)-c2sc(NC(C)=O)nc2CC3)c1` displayed an IC50 below 0.6 µM.

`CC(=O)Nc1nc2c(s1)-c1nc(-c3cc(C#CC4(O)CCCCC4)ccc3Cl)ncc1CC2` had an IC50 below 0.6 µM.

In turn, `CNCC#Cc1cccc(-c2ncc3c(n2)-c2sc(NC(C)=O)nc2CC3)c1` gave an IC50 below 0.6 µM.

As for `CC(=O)Nc1nc2c(s1)-c1nc(-c3cc(C#CC(C)(C)N)ccc3Cl)ncc1CC2`, the IC50 was below 0.6 µM.

In turn, `CC(=O)Nc1nc2c(s1)-c1nc(-c3cc(Cl)cc(C#CCNC(=O)CC(C)(C)C)c3)ncc1CC2` had an IC50 below 0.6 µM.

Molecule `CC(=O)Nc1nc2c(s1)-c1nc(-c3cc(C#CC4(O)CCN(C5CCCC5)CC4)ccc3Cl)ncc1CC2` gave an IC50 below 0.6 µM.

Regarding `CC(=O)Nc1nc2c(s1)-c1nc(-c3cc(C#CCCCN(C)C(C)C)ccc3Cl)ncc1CC2`, the IC50 was below 0.6 µM.

In turn, `CC(=O)Nc1nc2c(s1)-c1nc(-c3cc(C#CCCN(C)C(C)C)ccc3Cl)ncc1CC2` returned an IC50 below 0.6 µM.
